# Laboratory results published in PubChem BioAssay (NCI).
#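 Where inhibition never reached the appropriate level, the endpoint shown equals the highest concentration tested. Otherwise, values were interpolated linearly from a five-concentration, 48-hour dose response in 96-well plates. GI50 is the concentration that inhibits growth by half. TGI: concentration producing complete growth inhibition.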
# How the values were obtained:
# Assay in all cases: NCI anticancer screen, dose series, 48 h
# SK-MEL-5 melanoma = system: SK-MEL-5 melanoma
# SK-OV-3 ovarian = system: SK-OV-3 ovarian
# HCC-2998 colon = system: HCC-2998 colon
# U251 CNS = system: U251 CNS
# LOX IMVI melanoma = system: LOX IMVI melanoma
# T-47D breast = system: T-47D breast
# DU-145 prostate = system: DU-145 prostate
# SF-539 CNS = system: SF-539 CNS
# MDA-N = system: MDA-N
# M14 melanoma = system: M14 melanoma
# RXF 393 renal = system: RXF 393 renal
# OVCAR-4 ovarian = system: OVCAR-4 ovarian
# ACHN renal = system: ACHN renal
# EKVX NSCLC = system: EKVX NSCLC
# HL-60(TB) leukemia = system: HL-60(TB) leukemia
# CCRF-CEM leukemia = system: CCRF-CEM leukemia
SMILES,TGI (SK-MEL-5 melanoma) [µM],TGI (SK-OV-3 ovarian) [µM],TGI (HCC-2998 colon) [µM],TGI (U251 CNS) [µM],TGI (LOX IMVI melanoma) [µM],TGI (T-47D breast) [µM],TGI (DU-145 prostate) [µM],TGI (SF-539 CNS) [µM],TGI (MDA-N) [µM],TGI (M14 melanoma) [µM],TGI (RXF 393 renal) [µM],TGI (OVCAR-4 ovarian) [µM],TGI (ACHN renal) [µM],TGI (EKVX NSCLC) [µM],TGI (HL-60(TB) leukemia) [µM],TGI (CCRF-CEM leukemia) [µM],GI50 (HCC-2998 colon) [µM],GI50 (DU-145 prostate) [µM],GI50 (SK-MEL-5 melanoma) [µM],GI50 (M14 melanoma) [µM]
C=C1[C@H](OCC(C)C)[C@@H](OCC(C)C)[C@@H](O)C(C)(C)/C=C/[C@H](C)C(=O)[C@@]2(O)C[C@H](C)[C@H](O)[C@@H]2[C@H]1OCC(C)C,> 7.5,> 7.5,> 7.5,> 7.5,> 7.5,> 7.5,> 7.5,> 7.5,> 7.5,> 7.5,> 7.5,> 7.5,> 7.5,,,,,,,
C=CCN1C(=O)N/C(=C\c2ccc(Cl)cc2)C1=O,> 100,> 100,,> 100,> 100,> 100,> 100,> 100,> 100,> 100,> 100,> 100,> 100,> 100,> 100,> 100,,,,
CC(C)CC(NC(=O)OCc1ccccc1)C(=O)NCCCCC(N)C(=O)NC(CCCCNC(=O)C(CC(C)C)NC(=O)OCc1ccccc1)C(=O)NC(CCCCNC(=O)C(CC(C)C)NC(=O)OCc1ccccc1)C(=O)NC(CCCCNC(=O)C(CC(C)C)NC(=O)OCc1ccccc1)C(=O)NC(CCCCNC(=O)C(CC(C)C)NC(=O)OCc1ccccc1)C(=O)NC(CCCCNC(=O)C(CC(C)C)NC(=O)OCc1ccccc1)C(=O)O (stereo not drawn),> 100,,> 100,> 100,> 100,> 100,> 100,,> 100,,,> 100,> 100,,> 100,> 100,,,,
CC1=C/C(=N\N(C)C)C(C(O)(C(F)(F)F)C(F)(F)F)C(C)(C)C1 (stereo not drawn),> 100,,> 100,> 100,> 100,> 100,> 100,> 100,> 100,> 100,> 100,> 100,> 100,> 100,> 100,> 100,,,,
C/C(=C\c1csc(C)n1)[C@@H]1C[C@@H]2O[C@]2(C)CCC[C@H](C)[C@H](O)[C@@H](C)C(=O)C(C)(C)[C@@H](O)CC(=O)O1 (tested in a mixture with another compound),> 1,> 0.72,,> 1,> 1,> 1,0.0682,0.0348,0.00205,> 1,0.0211,> 1,> 1,> 1,0.0278,,0.00305,0.00528,,
CO[C@H]1C[C@@H]2CC[C@@H](C)[C@@](O)(O2)C(=O)C(=O)N2CCCC[C@H]2C(=O)O[C@H]([C@H](C)C[C@@H]2CC[C@@H](OC(=O)C(C)(CO)CO)[C@H](OC)C2)CC(=O)[C@H](C)/C=C(\C)[C@@H](O)[C@@H](OC)C(=O)[C@H](C)C[C@H](C)/C=C/C=C/C=C/1C,> 100,> 100,> 46.9,> 47.4,> 75.9,> 100,> 100,5.23,> 73.4,> 100,21.9,,> 100,> 52.2,6.31,,0.00154,0.0379,1.87,16
O=C(O)c1ccccc1C(=O)OCC1CCCN2CCCCC12 (stereo not drawn),> 100,> 100,> 100,> 100,> 100,> 100,> 100,> 100,> 100,> 100,> 100,> 100,> 100,> 100,,> 100,,,,
O=C(n1[nH]c(=O)n(-c2ccc([N+](=O)[O-])cc2)c1=O)C(Cl)(Cl)Cl,> 75,> 75,> 75,> 75,> 75,> 75,> 75,,> 75,> 75,> 75,> 75,> 75,> 75,> 75,,,,,
Cc1nn(-c2ccccc2)c2nc3c(c(C)nn3-c3ccccc3)c(-c3ccccc3Br)c12,> 100,> 100,> 100,> 100,> 100,> 100,> 100,> 100,> 100,> 100,> 100,> 100,> 100,> 100,,> 100,,,,
O=c1c2cc([N+](=O)[O-])cnc2sn1-c1ccc(Oc2ccccc2)cc1,> 100,87.5,> 100,> 100,> 100,56.6,> 100,> 100,> 100,> 100,,> 100,> 100,> 100,> 100,> 100,,,,
CC1=C(C(=O)OC23CC4CC(CC(C4)C2)C3)C(c2ccccc2OC(F)F)C(C(=O)OC23CC4CC(CC(C4)C2)C3)=C(C)N1 (stereo not drawn),> 100,> 100,> 100,> 100,> 100,> 100,> 100,> 100,> 100,> 100,> 100,> 100,,,> 100,> 100,,,,
CC(C)CC(=O)OC[n+]1cccc(-c2c(COC(=O)NC(C)C)c(COC(=O)NC(C)C)c3n2CCC3)c1,> 100,> 100,> 100,> 100,> 100,> 100,79.7,> 100,> 100,> 100,> 100,> 100,> 100,> 100,,> 100,,,,
CCOC(=O)c1c(-c2ccc(Cl)cc2)c(C#N)c(=S)n(C2OC(CO)C(O)C(O)C2O)c1-c1ccccc1 (stereo not drawn),29.3,96.2,81.9,32,33.5,54.4,> 100,35,49.9,37.6,47.1,> 100,> 100,,,53.9,,,,
Clc1cccc(Cl)c1C1SCc2nc3cc4ccccc4cc3n21 (stereo not drawn),> 100,> 100,> 100,> 100,,> 100,> 100,,> 100,> 100,> 100,> 100,> 100,> 100,,> 100,,,,
